The results in this text go back to patent US20240391956A1, “STAPLED PEPTIDES AND METHODS THEREOF” (FOG PHARMACEUTICALS, INC., priority 2023, published 2024).

*1 amine or outer side, *2 acyl side, *3 side chain or, on linkers, in order; H or OH if unused. Where a SMILES comes first, the peptide text is derived from it. Bridges are numbered along the chain shown (N, C = ends). [ ]: non-standard residue; d: D form. Phenylene(1,4-NHCOCH2)2 = O=C(C[*:1])Nc1ccc(NC(=O)C[*:2])cc1

For this test, the target named is T1, CHIP23-303 recombinant protein (Homo sapiens, UniProt Q9UNE7).
T1 construct: 6xHis (N, cleaved yes); TEV site (N, cleaved yes); made in house; host or cells: E. coli BL21 CodonPlus
T1 sequence (Q9UNE7 23-303): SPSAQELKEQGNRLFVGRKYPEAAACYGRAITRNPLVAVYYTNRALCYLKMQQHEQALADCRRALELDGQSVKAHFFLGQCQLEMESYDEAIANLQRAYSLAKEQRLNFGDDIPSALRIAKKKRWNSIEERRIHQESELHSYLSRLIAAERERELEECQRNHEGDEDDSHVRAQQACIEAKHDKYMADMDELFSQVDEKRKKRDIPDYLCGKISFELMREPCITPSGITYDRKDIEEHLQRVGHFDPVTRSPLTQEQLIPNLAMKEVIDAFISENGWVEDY
Put plainly: Competition fluorescence polarization with CHIP23-303 and HSP70-derived probe 5FAM-bAla-[…]. It is filed as binding. To be noted: competition FP, 400 nM CHIP23-303, 20 nM probe, 1 hour at room temperature; read-out: Measured KD. As for the experimental part:
For the competition FP of CHIP, stapled peptides at 10 mM in DMSO were serially diluted 1:3 in DMSO for a total of 11 concentrations using a Mosquito LV (SPT Labtech), then diluted 1000-fold in buffer (1×HBS-P+, Cytiva) in duplicate by the Mosquito LV (SPT Labtech) into a black polystyrene 384-well plate (Corning) (11-point three-fold peptide dilution series with top concentration=10 μM). The assay was performed with 400 nM CHIP23-303 recombinant protein as target, and 20 nM BCHIP-binding peptide as probe (5FAM-bAla-[…] (SEQ ID NO: 18), derived from HSP70). The plate was incubated and protected from light for 1 hour at room temperature prior to reading. Reads were performed on a CLARIOstar plate reader (BMG Labtech) with excitation at 485 nm, emission at 525 nm, and cutoff at 504 nm. Data were fitted to a 1:1 binding model with Hill slope using an in-house script.
In some embodiments, CHP polypeptide was prepared as follows: CHIP (residues 23-303 for competition FP and 23-154 for crystallography) with an N-terminal 6×His-TEV tag was recombinantly expressed in E. coli BL21 CodonPlus cells (Agilent) from a pET21b-derived expression vector (Novagen) (“6×His” disclosed as SEQ ID NO: 13). The cells were induced at OD600=0.6 with 1 mM IPTG for 4 hours at 37° C., then harvested and resuspended in 50 mM Tris-HCl pH 8.0, 500 mM NaCl, 10 mM imidazole, 10% glycerol, and 10 mM ß-me. For purification, the pellet was lysed with a tip sonicator with power level set at 400 W, 3 seconds on and 3 seconds off for 20 min, pelleted at 22,000×g for 30 minutes at 4° C. The supernatant was purified with Ni-NTA resin (Qiagen), eluting with 250 mM imidazole. Eluted proteins were pooled, concentrated, and TEV-cleaved by adding TEV protease at a ratio of 1:10 protease to protein and incubated overnight at 4° C. TEV-cleaved proteins were loaded onto a Superdex™ 10/300 75 pg (Cytiva) SEC column, and eluted in 50 mM HEPES, pH 8.0, 150 mM NaCl, 10% glycerol, 2 mM DTT. Fractions containing pure protein were collected, pooled, concentrated to 30 mg/mL and stored at −80° C. […]
Background: Fluorescence polarisation rises when a labelled molecule tumbles more slowly, as on binding a larger partner.
By Kd is commonly meant the constant that tells how readily two partners part at equilibrium. Turning to `CSCC[C@@H](NC(=O)[C@@H](CCC(=O)O)NC(=O)[C@@H](Cc1c[nH]cn1)NC(=O)[C@H]1CCCN1C(C)=O)C(=O)N[C@@H]1CSCC(=O)Nc2ccc(cc2)NC(=O)CSC[C@H](C(=O)N[C@H](CCCNC(=N)N)C(=O)N[C@H](Cc2ccc(O)cc2)C(=O)N[C@H](CO)C(N)=O)NC(=O)[C@@H](Cc2ccc(O)cc2)NC(=O)[C@@H](C)NC(=O)[C@@H](CC(=O)O)NC(=O)[C@@H](C)NC(=O)[C@@H](Cc2c[nH]c3ccccc23)NC(=O)[C@@H](Cc2ccc(O)cc2)NC1=O` [H203, Ac-phemcywadaycrys-NH2] (Ac-[dP][dH][dE][dM][dC][dY][dW][dA][dD][dA][dY][dC][dR][dY][dS]-NH2; linker 5-12 via Phenylene(1,4-NHCOCH2)2), the Kd came to 550 nM.
The same measure for `CC[C@@H](C)[C@@H](NC(=O)[C@H]1CSCC(=O)Nc2ccc(cc2)NC(=O)CSC[C@@H](NC(=O)[C@@H](CC(C)C)NC(=O)[C@@H](CC(=O)O)NC(=O)[C@@H](CC(C)C)NC(=O)[C@H]2CCCN2C(C)=O)C(=O)N[C@H](Cc2ccc(O)cc2)C(=O)N[C@H](Cc2c[nH]c3ccccc23)C(=O)N[C@H](C)C(=O)N[C@H](CO)C(=O)N[C@H](CC(C)C)C(=O)N[C@H](Cc2c[nH]cn2)C(=O)N1)C(=O)N[C@@H](C(=O)N[C@H](CO)C(N)=O)C(C)C` [H204, Ac-pldlcywaslhcivs-NH2] (Ac-[dP][dL][dD][dL][dC][dY][dW][dA][dS][dL][dH][dC][dI][dV][dS]-NH2; linker 5-12 via Phenylene(1,4-NHCOCH2)2): 770 nM.
Take `CC[C@@H](C)[C@@H](NC(=O)[C@@H](CC(N)=O)NC(=O)[C@@H](Cc1ccc(O)cc1)NC(=O)[C@H]1CSCC(=O)Nc2ccc(cc2)NC(=O)CSC[C@@H](NC(=O)[C@@H](CC(=O)O)NC(=O)[C@@H](CCC(=O)O)NC(=O)[C@@H](Cc2c[nH]c3ccccc23)NC(=O)[C@H]2CCCN2C(C)=O)C(=O)N[C@H](C)C(=O)N[C@H](Cc2c[nH]c3ccccc23)C(=O)N[C@H](Cc2ccccc2)C(=O)N[C@H](C)C(=O)N[C@H](Cc2c[nH]c3ccccc23)C(=O)N[C@H](C)C(=O)N1)C(N)=O` [H201, Ac-pwedcawfawacyni-NH2] (Ac-[dP][dW][dE][dD][dC][dA][dW][dF][dA][dW][dA][dC][dY][dN][dI]-NH2; linker 5-12 via Phenylene(1,4-NHCOCH2)2): the Kd came out at 470 nM.
